# Test results: article PMC9239997, “Structural basis for mitoguardin-2 mediated lipid transport at ER-mitochondrial membrane contact sites” (Nature Communications, 2022)
# Numbering of substitutions follows the chain as printed. [ ]: non-standard residue; d: D form. pS = N[C@@H](COP(=O)(O)O)C(=O)O
# T1: zMiga2-GST (Danio rerio, UniProt Q5BLE2)
# T1 construct: gene miga2; LD targeting domain, residues 310-568, C-terminal GST fusion kept; E. coli
# T1 sequence (Q5BLE2 310-568): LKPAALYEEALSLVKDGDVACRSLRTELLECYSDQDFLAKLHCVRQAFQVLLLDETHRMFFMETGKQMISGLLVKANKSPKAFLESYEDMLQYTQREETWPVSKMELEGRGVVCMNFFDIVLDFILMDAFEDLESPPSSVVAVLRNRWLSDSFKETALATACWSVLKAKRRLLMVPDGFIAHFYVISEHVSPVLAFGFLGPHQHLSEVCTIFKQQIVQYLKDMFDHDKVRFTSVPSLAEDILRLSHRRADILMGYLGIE
# T2: zMiga2 (Danio rerio, UniProt Q5BLE2)
# T2 construct: gene miga2; LD targeting domain, residues 310-568; E. coli BL21(DE3); His6 tag cleaved by TEV
# T2 sequence (Q5BLE2 310-568): T1 sequence (Q5BLE2 310-568)
# T3: zMiga2 (Danio rerio, UniProt Q5BLE2, V430W/F488W)
# T3 construct: gene miga2; LD targeting domain, residues 310-568; E. coli BL21(DE3); His6 tag cleaved by TEV
# T3 sequence (Q5BLE2 310-568 V430W/F488W): T1 sequence (Q5BLE2 310-568) with V121W, F179W
# T4: mMIGA1^313–573 (Mus musculus, UniProt Q4QQM5)
# T4 construct: gene Miga1; LD targeting domain, residues 313-573; E. coli; His6 tag cleaved by TEV
# T4 sequence (Q4QQM5 313-573): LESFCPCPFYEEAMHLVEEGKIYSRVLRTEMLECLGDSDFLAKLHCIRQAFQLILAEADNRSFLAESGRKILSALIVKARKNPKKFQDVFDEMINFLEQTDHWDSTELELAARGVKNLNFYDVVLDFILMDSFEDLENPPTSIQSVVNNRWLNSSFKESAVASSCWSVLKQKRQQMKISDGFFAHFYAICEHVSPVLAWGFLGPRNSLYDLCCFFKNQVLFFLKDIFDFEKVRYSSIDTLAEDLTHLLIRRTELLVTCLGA
# T5: zMiga2 (Danio rerio, UniProt Q5BLE2, V430W)
# T5 construct: gene miga2; LD targeting domain, residues 310-568; E. coli BL21(DE3); His6 tag cleaved by TEV
# T5 sequence (Q5BLE2 310-568 V430W): T1 sequence (Q5BLE2 310-568) with V121W
# T6: zMiga2 (Danio rerio, UniProt Q5BLE2, F488W)
# T6 construct: gene miga2; LD targeting domain, residues 310-568; E. coli BL21(DE3); His6 tag cleaved by TEV
# T6 sequence (Q5BLE2 310-568 F488W): T1 sequence (Q5BLE2 310-568) with F179W
# T7: zMiga2 (Danio rerio, UniProt Q5BLE2, W409A)
# T7 construct: gene miga2; LD targeting domain, residues 310-568; E. coli BL21(DE3); His6 tag cleaved by TEV
# T7 sequence (Q5BLE2 310-568 W409A): T1 sequence (Q5BLE2 310-568) with W100A
# B1: phosphorylated FFAT motif peptide of mouse MIGA2 (residues 289-298) (peptide)
# peptide: Ac-SED[pS]FF[pS]ATE-NH2
# SMILES: CC(=O)N[C@@H](CO)C(=O)N[C@@H](CCC(=O)O)C(=O)N[C@@H](CC(=O)O)C(=O)N[C@@H](COP(=O)(O)O)C(=O)N[C@@H](Cc1ccccc1)C(=O)N[C@@H](Cc1ccccc1)C(=O)N[C@@H](COP(=O)(O)O)C(=O)N[C@@H](C)C(=O)N[C@H](C(=O)N[C@@H](CCC(=O)O)C(N)=O)[C@@H](C)O
# notes: also called mMIGA2^pFFAT; phosphorylated FFAT peptide; source: synthetic peptide, purified by HPLC
# How the values were obtained:
# [1] = biological target: T1, zMiga2-GST; experiment: preloading, glutathione bead wash, Clear Native-PAGE fluorescence; assay type: binding; settings: labelled compound; probe of the displacement assay
# [2] = biological target: T2, zMiga2; experiment: Clear Native-PAGE, NBD fluorescence; assay type: binding; settings: labelled compound; pH 7.5, on ice, 2 h; hydrophobic cavity
# [3] = biological target: T3, zMiga2; experiment: Clear Native-PAGE, NBD fluorescence; assay type: binding; settings: labelled compound; pH 7.5, on ice, 2 h
# [4] = biological target: T4, mMIGA1^313–573; experiment: Clear Native-PAGE, NBD fluorescence; assay type: binding; settings: labelled compound; pH 7.5, on ice, 2 h
# [5] = biological target: T5, zMiga2; experiment: Clear Native-PAGE, NBD fluorescence; assay type: binding; settings: labelled compound; pH 7.5, on ice, 2 h
# [6] = biological target: T6, zMiga2; experiment: Clear Native-PAGE, NBD fluorescence; assay type: binding; settings: labelled compound; pH 7.5, on ice, 2 h
# [7] = biological target: T7, zMiga2; experiment: Clear Native-PAGE, NBD fluorescence; assay type: binding; settings: labelled compound; pH 7.5, on ice, 2 h
# [8] = biological target: T8, MSP domain of mouse VAPB (residues 1-125) (mouse (Mus musculus), UniProt Q9QY76 1-125); experiment: ITC; Microcal ITC200, 25 °C, buffer C (25 mM Tris-HCl pH 7.5, 150 mM NaCl, 4 mM β-mercaptoethanol); 20 injections of 2 μl; 1:1 binding model; settings: both partners purified
# T8 construct: vesicle-associated membrane protein-associated protein B/C (VAPB), mouse, MSP domain, residues 1-125; In the liposome clustering (DLS) and tethered lipid transfer assays a His-tagged form (His-mVAPB) was used; also called mVAPB; wild-type mVAPB
# T8 sequence (Q9QY76 1-125): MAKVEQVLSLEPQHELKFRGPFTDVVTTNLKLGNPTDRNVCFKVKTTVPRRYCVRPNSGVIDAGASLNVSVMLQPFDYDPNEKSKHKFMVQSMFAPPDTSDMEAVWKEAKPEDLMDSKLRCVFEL
# [9] = biological target: T9, MSP domain of mouse VAPB (residues 1-125), K43L/K45L (mouse (Mus musculus), UniProt Q9QY76 1-125, K43L | K45L); experiment: as above; settings: both partners purified
# T9 construct: vesicle-associated membrane protein-associated protein B/C (VAPB), mouse, MSP domain, residues 1-125, K43L/K45L; also called mVAPB K43L/K45L
# T9 sequence (Q9QY76 1-125 K43L/K45L): as the sequence (Q9QY76 1-125) above, with K43L, K45L counted along it
# [10] = biological target: T10, MSP domain of mouse VAPB (residues 1-125), K87L/K118L (mouse (Mus musculus), UniProt Q9QY76 1-125, K87L | K118L); experiment: as above; settings: both partners purified
# T10 construct: vesicle-associated membrane protein-associated protein B/C (VAPB), mouse, MSP domain, residues 1-125, K87L/K118L; also called mVAPB K87L/K118L
# T10 sequence (Q9QY76 1-125 K87L/K118L): as the sequence (Q9QY76 1-125) above, with K87L, K118L counted along it
molecule,measurement,setting,value
"CCCCCCCCCCCCCCCC(=O)OC[C@H](COP(=O)([O-])OCC[N+](C)(C)C)OC(=O)CCCCCCCCCCCNc1ccc([N+](=O)[O-])c2nonc12 [NBD-PC, 1-palmitoyl-2-{12-[(7-nitro-2-1,3-benzoxadiazol-4-yl)amino]dodecanoyl}-sn-glycero-3-phosphocholine]","preloading, glutathione bead wash, Clear Native-PAGE fluorescence",[1],The NBD-PC bound zMiga2 was incubated with natural lipids across a range of concentrations
"CCCCCCCC/C=C\CCCCCCCC(=O)OC[C@H](COP(=O)(O)OCCNc1ccc([N+](=O)[O-])c2nonc12)OC(=O)CCCCCCC/C=C\CCCCCCCC [NBD-PE, 1,2-dioleoyl-sn-glycero-3-phosphoethanolamine-N-(7-nitro-2-1,3-benzoxadiazol-4-yl)]","Clear Native-PAGE, NBD fluorescence",[2],explored the ability of the mutant proteins to interact with NBD-PE
same,lipid binding relative to WT,[3],double mutant showed decreased lipid-binding that was less than half of that of the wild type
same,"Clear Native-PAGE, NBD fluorescence",[4],NBD-PE binding by MIGA1 was markedly lower than that by MIGA2
same,lipid binding relative to WT,[5],the V430W or F488W single mutant showed a slight decrease in NBD-PE binding
same,lipid binding relative to WT,[6],the V430W or F488W single mutant showed a slight decrease in NBD-PE binding
same,NBD-PE binding relative to WT,[7],~ 2 fold
B1,Kd,[8],1700 ± 200 nM
same,fold lower binding affinity than wild type mVAPB,[9],5 fold
same,fold lower binding affinity than wild type mVAPB,[10],3 fold
